Experiments:
Type in all cases: in vivo
[1] = test system: blackgrass (Alopecurus myosuroides); experiment: Test C postemergence; details: Alopecurus myosuroides, post-emergence, 336 h, Postemergence, scale 0 to 100, read-out: Plant response rating, Blackgrass
Method in brief: (§1)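 Visual ratings were made 13-15 days after treatment in the greenhouse, scored 0-100 against controls, where 100 means complete control. Treatments used a surfactant-containing non-phytotoxic solvent formulation, applied preemergence to seeds in loam-sand soil or postemergence to 2-18 cm plants (1-4 leaves) in peat-based medium.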

[2] = test system: barnyardgrass (Echinochloa crus-galli); experiment: Test C postemergence; details: Echinochloa crus-galli, post-emergence, Postemergence, scale 0 to 100, read-out: Plant response rating, Barnyardgrass
Method in brief: as §1

[3] = test system: ragweed (common ragweed, Ambrosia elatior); experiment: Test C postemergence; details: Ambrosia artemisiifolia, post-emergence, 336 h, Postemergence, scale 0 to 100, read-out: Plant response rating, Ragweed
Method in brief: as §1

[4] = test system: large (Lg) crabgrass (Digitaria sanguinalis); experiment: Test C postemergence; details: Digitaria sanguinalis, post-emergence, 336 h, Postemergence, scale 0 to 100, read-out: Plant response rating, Crabgrass, Large
Method in brief: as §1

[5] = test system: chickweed (common chickweed, Stellaria media); experiment: Test C postemergence; details: Stellaria media, post-emergence, Postemergence, scale 0 to 100, read-out: Plant response rating, Chickweed
Method in brief: as §1

[6] = test system: oilseed rape (Brassica napus); experiment: Test C postemergence; details: Brassica napus, post-emergence, Postemergence, scale 0 to 100, read-out: Plant response rating, Oilseed Rape
Method in brief: as §1

[7] = test system: velvetleaf (Abutilon theophrasti); experiment: Test C postemergence; details: Abutilon theophrasti, post-emergence, Postemergence, scale 0 to 100, read-out: Plant response rating, Velvetleaf
Method in brief: as §1

kochia (Kochia scoparia) = experiment: Test C postemergence; details: Bassia scoparia, post-emergence, Postemergence, scale 0 to 100, read-out: Plant response rating, Kochia
Method in brief: as §1

[8] = test system: yellow nutsedge (Cyperus esculentus); experiment: Test C postemergence; details: Cyperus, post-emergence, 336 h, Postemergence, scale 0 to 100, read-out: Plant response rating, Nutsedge, Yellow
Method in brief: as §1

soybean (Glycine max) = experiment: Test C postemergence; details: Glycine max, post-emergence, Postemergence, scale 0 to 100, read-out: Plant response rating, Soybean
Method in brief: as §1

[9] = test system: lambsquarters (Chenopodium album); experiment: Test C postemergence; details: Chenopodium album, post-emergence, 336 h, Postemergence, scale 0 to 100, read-out: Plant response rating, Lambsquarters
Method in brief: as §1

[10] = test system: waterhemp (common waterhemp, Amaranthus rudis); experiment: Test C postemergence; details: Amaranthus tuberculatus, post-emergence, Postemergence, scale 0 to 100, read-out: Plant response rating, Waterhemp
Method in brief: as §1

[11] = test system: johnsongrass (Sorghum halepense); experiment: Test C postemergence; details: Sorghum halepense, post-emergence, 336 h, Postemergence, scale 0 to 100, read-out: Plant response rating, Johnsongrass
Method in brief: as §1

[12] = test system: winter wheat (Triticum aestivum); experiment: Test C postemergence; details: Triticum aestivum, post-emergence, 336 h, Postemergence, scale 0 to 100, read-out: Plant response rating, Wheat
Method in brief: as §1

[13] = test system: Italian ryegrass (Lolium multiflorum); experiment: Test C postemergence; details: Lolium multiflorum, post-emergence, 336 h, Postemergence, scale 0 to 100, read-out: Plant response rating, Ryegrass, Italian
Method in brief: as §1

[14] = test system: pigweed (Amaranthus retroflexus); experiment: Test C postemergence; details: Amaranthus retroflexus, post-emergence, 336 h, Postemergence, scale 0 to 100, read-out: Plant response rating, Pigweed
Method in brief: as §1

corn (Zea mays) = experiment: Test C postemergence; details: Zea mays, post-emergence, 336 h, Postemergence, scale 0 to 100
Method in brief: as §1

wild oat (Avena fatua) = experiment: Test C postemergence; details: Avena fatua, post-emergence, Postemergence, scale 0 to 100, read-out: Plant response rating, Oat, Wild
Method in brief: as §1

[15] = test system: oilseed rape (Brassica napus); experiment: Test C preemergence; details: Brassica napus, pre-emergence, scale 0 to 100, read-out: Plant response rating, Oilseed Rape
Method in brief: as §1

[16] = test system: galium (catchweed bedstraw, Galium aparine); experiment: Test C preemergence; details: Galium, pre-emergence, 336 h, scale 0 to 100, read-out: Plant response rating, Galium
Method in brief: as §1

[17] = test system: morningglory (Ipomoea coccinea); experiment: Test C preemergence; details: Ipomoea, pre-emergence, 336 h, scale 0 to 100, read-out: Plant response rating, Morningglory
Method in brief: as §1

[18] = test system: waterhemp (common waterhemp, Amaranthus rudis); experiment: Test C preemergence; details: Amaranthus tuberculatus, pre-emergence, scale 0 to 100, read-out: Plant response rating, Waterhemp
Method in brief: as §1

Q: FC(F)c1cccc(Oc2ncc(Cl)cn2)c1Oc1ncc(Cl)cn1 [Compound 46, 2,2′-[[3-(difluoromethyl)-1,2-phenylene]bis(oxy)]bis[5-chloropyrimidine]] was tested. Which pest or weed control at 16 g/ha ([1]; 16 g ai/ha) did it give?
A: 0%

Q: And the pest or weed control at 31 g/ha ([1]; 31 g ai/ha)?
A: 0%

Q: What about the pest or weed control at 62 g/ha ([1]; 62 g ai/ha) of the same compound?
A: 0%

Q: What about the pest or weed control at 125 g/ha ([1]; 125 g ai/ha) of the same compound?
A: 5%

Q: And the pest or weed control at 16 g/ha ([2]; 16 g ai/ha)?
A: 0%

Q: What about the pest or weed control at 31 g/ha ([2]; 31 g ai/ha) of the same compound?
A: 5%

Q: What about the pest or weed control at 62 g/ha ([2]; 62 g ai/ha) of the same compound?
A: 5%

Q: And the pest or weed control at 125 g/ha ([2]; 125 g ai/ha)?
A: 5%

Q: What about the pest or weed control at 31 g/ha ([3]; 31 g ai/ha) of the same compound?
A: 50%

Q: What about the pest or weed control at 62 g/ha ([3]; 62 g ai/ha) of the same compound?
A: 65%

Q: And the pest or weed control at 125 g/ha ([3]; 125 g ai/ha)?
A: 95%

Q: What about the pest or weed control at 16 g/ha ([4]; 16 g ai/ha) of the same compound?
A: 5%

Q: What about the pest or weed control at 31 g/ha ([4]; 31 g ai/ha) of the same compound?
A: 5%

Q: And the pest or weed control at 62 g/ha ([4]; 62 g ai/ha)?
A: 10%

Q: And the pest or weed control at 125 g/ha ([4]; 125 g ai/ha)?
A: 10%

Q: What about the pest or weed control at 16 g/ha ([5]; 16 g ai/ha) of the same compound?
A: 35%

Q: And the pest or weed control at 31 g/ha ([5]; 31 g ai/ha)?
A: 40%

Q: And the pest or weed control at 62 g/ha ([5]; 62 g ai/ha)?
A: 60%

Q: And the pest or weed control at 125 g/ha ([5]; 125 g ai/ha)?
A: 75%

Q: What about the plant injury at 31 g/ha ([6]; 31 g ai/ha) of the same compound?
A: 30%

Q: What about the plant injury at 62 g/ha ([6]; 62 g ai/ha) of the same compound?
A: 50%

Q: What about the plant injury at 125 g/ha ([6]; 125 g ai/ha) of the same compound?
A: 65%

Q: And the pest or weed control at 31 g/ha ([7]; 31 g ai/ha)?
A: 25%

Q: And the pest or weed control at 62 g/ha ([7]; 62 g ai/ha)?
A: 55%

Q: And the pest or weed control at 125 g/ha ([7]; 125 g ai/ha)?
A: 65%

Q: What about the pest or weed control at 16 g/ha (kochia (Kochia scoparia); 16 g ai/ha) of the same compound?
A: 70%

Q: What about the pest or weed control at 31 g/ha (kochia (Kochia scoparia); 31 g ai/ha) of the same compound?
A: 80%

Q: What about the pest or weed control at 62 g/ha (kochia (Kochia scoparia); 62 g ai/ha) of the same compound?
A: 95%

Q: And the pest or weed control at 125 g/ha (kochia (Kochia scoparia); 125 g ai/ha)?
A: 100%

Q: And the pest or weed control at 31 g/ha ([8]; 31 g ai/ha)?
A: 0%

Q: What about the pest or weed control at 62 g/ha ([8]; 62 g ai/ha) of the same compound?
A: 5%

Q: And the pest or weed control at 125 g/ha ([8]; 125 g ai/ha)?
A: 5%

Q: And the plant injury at 31 g/ha (soybean (Glycine max); 31 g ai/ha)?
A: 65%

Q: What about the plant injury at 62 g/ha (soybean (Glycine max); 62 g ai/ha) of the same compound?
A: 75%

Q: And the plant injury at 125 g/ha (soybean (Glycine max); 125 g ai/ha)?
A: 80%

Q: And the pest or weed control at 16 g/ha ([9]; 16 g ai/ha)?
A: 55%

Q: And the pest or weed control at 31 g/ha ([9]; 31 g ai/ha)?
A: 70%

Q: What about the pest or weed control at 62 g/ha ([9]; 62 g ai/ha) of the same compound?
A: 85%

Q: And the pest or weed control at 125 g/ha ([9]; 125 g ai/ha)?
A: 98%

Q: What about the pest or weed control at 31 g/ha ([10]; 31 g ai/ha) of the same compound?
A: 50%

Q: What about the pest or weed control at 62 g/ha ([10]; 62 g ai/ha) of the same compound?
A: 70%

Q: What about the pest or weed control at 125 g/ha ([10]; 125 g ai/ha) of the same compound?
A: 5%

Q: And the pest or weed control at 16 g/ha ([11]; 16 g ai/ha)?
A: 5%

Q: And the pest or weed control at 31 g/ha ([11]; 31 g ai/ha)?
A: 10%

Q: What about the pest or weed control at 62 g/ha ([11]; 62 g ai/ha) of the same compound?
A: 5%

Q: What about the pest or weed control at 125 g/ha ([11]; 125 g ai/ha) of the same compound?
A: 5%

Q: And the plant injury at 31 g/ha ([12]; 31 g ai/ha)?
A: 5%

Q: And the plant injury at 62 g/ha ([12]; 62 g ai/ha)?
A: 5%

Q: And the plant injury at 125 g/ha ([12]; 125 g ai/ha)?
A: 10%

Q: What about the pest or weed control at 31 g/ha ([13]; 31 g ai/ha) of the same compound?
A: 5%

Q: And the pest or weed control at 62 g/ha ([13]; 62 g ai/ha)?
A: 5%

Q: What about the pest or weed control at 125 g/ha ([13]; 125 g ai/ha) of the same compound?
A: 10%

Q: And the pest or weed control at 31 g/ha ([14]; 31 g ai/ha)?
A: 70%

Q: What about the pest or weed control at 62 g/ha ([14]; 62 g ai/ha) of the same compound?
A: 70%

Q: What about the pest or weed control at 125 g/ha ([14]; 125 g ai/ha) of the same compound?
A: 85%

Q: And the Corn plant response rating (crop injury, 0 = no effect, 100 = complete kill) at 16 g/ha (corn (Zea mays); 16 g ai/ha)?
A: 5%

Q: And the Corn plant response rating (crop injury, 0 = no effect, 100 = complete kill) at 31 g/ha (corn (Zea mays); 31 g ai/ha)?
A: 5%

Q: And the Corn plant response rating (crop injury, 0 = no effect, 100 = complete kill) at 62 g/ha (corn (Zea mays); 62 g ai/ha)?
A: 5%

Q: What about the Corn plant response rating (crop injury, 0 = no effect, 100 = complete kill) at 125 g/ha (corn (Zea mays); 125 g ai/ha) of the same compound?
A: 10%

Q: What about the pest or weed control at 31 g/ha (wild oat (Avena fatua); 31 g ai/ha) of the same compound?
A: 5%

Q: And the pest or weed control at 62 g/ha (wild oat (Avena fatua); 62 g ai/ha)?
A: 5%

Q: And the pest or weed control at 125 g/ha (wild oat (Avena fatua); 125 g ai/ha)?
A: 10%

Q: What about the plant injury at 31 g/ha ([15]; 31 g ai/ha, preemergence) of the same compound?
A: 90%

Q: What about the plant injury at 62 g/ha ([15]; 62 g ai/ha, preemergence) of the same compound?
A: 98%

Q: What about the plant injury at 125 g/ha ([15]; 125 g ai/ha, preemergence) of the same compound?
A: 100%

Q: What about the plant injury at 16 g/ha ([15]; Preemergence, 16 g ai/ha) of the same compound?
A: 65%

Q: What about the pest or weed control at 31 g/ha ([16]; 31 g ai/ha, preemergence) of the same compound?
A: 85%

Q: What about the pest or weed control at 62 g/ha ([16]; 62 g ai/ha, preemergence) of the same compound?
A: 95%

Q: What about the pest or weed control at 125 g/ha ([16]; 125 g ai/ha, preemergence) of the same compound?
A: 100%

Q: What about the pest or weed control at 16 g/ha ([16]; Preemergence, 16 g ai/ha) of the same compound?
A: 5%

Q: What about the pest or weed control at 31 g/ha ([17]; 31 g ai/ha, preemergence) of the same compound?
A: 90%

Q: What about the pest or weed control at 62 g/ha ([17]; 62 g ai/ha, preemergence) of the same compound?
A: 80%

Q: What about the pest or weed control at 125 g/ha ([17]; 125 g ai/ha, preemergence) of the same compound?
A: 100%

Q: What about the pest or weed control at 16 g/ha ([17]; Preemergence, 16 g ai/ha) of the same compound?
A: 20%

Q: And the pest or weed control at 31 g/ha ([18]; 31 g ai/ha, preemergence)?
A: 100%

Q: And the pest or weed control at 62 g/ha ([18]; 62 g ai/ha, preemergence)?
A: 100%

Q: And the pest or weed control at 125 g/ha ([18]; 125 g ai/ha, preemergence)?
A: 100%

Q: And the pest or weed control at 16 g/ha ([18]; Preemergence, 16 g ai/ha)?
A: 75%
